Measured values from ChEMBL document CHEMBL1671750, “Emergence and molecular characterization of extensively drug-resistant Mycobacterium tuberculosis clinical isolates from the Delhi Region in India” (2010).
≈ marks a conversion by molar mass, not a printed value. Calls of active or inactive are those of the source. No cut-off for these calls is given here.

How the values were obtained:
[1] = system: Mycobacterium tuberculosis; experiment: Antimycobacterial activity against extensively drug-resistant Mycobacterium tuberculosis isolate 2403 obtained from sputum of patient at 2 ug/ml by Bactec MGIT960 modified proportion method; type: functional, organism-based
[2] = system: Mycobacterium tuberculosis; experiment: Antimycobacterial activity against extensively drug-resistant Mycobacterium tuberculosis isolate 2301 obtained from sputum of patient at 2 ug/ml by Bactec MGIT960 modified proportion method; type: functional, organism-based
[3] = system: Mycobacterium tuberculosis; experiment: Antimycobacterial activity against extensively drug-resistant Mycobacterium tuberculosis isolate 2911 obtained from sputum of patient at 2 ug/ml by Bactec MGIT960 modified proportion method; type: functional, organism-based
[4] = system: Mycobacterium tuberculosis; experiment: Antimycobacterial activity against extensively drug-resistant Mycobacterium tuberculosis isolate 625 obtained from sputum of patient at 2 ug/ml by Bactec MGIT960 modified proportion method; type: functional, organism-based
[5] = system: Mycobacterium tuberculosis; experiment: Antimycobacterial activity against extensively drug-resistant Mycobacterium tuberculosis isolate 761 obtained from pus of patient at 2 ug/ml by Bactec MGIT960 modified proportion method; type: functional, organism-based
[6] = system: Mycobacterium tuberculosis; experiment: Antimycobacterial activity against extensively drug-resistant Mycobacterium tuberculosis isolate 2301 obtained from sputum of patient at 1 ug/ml by Bactec MGIT960 modified proportion method; type: functional, organism-based
[7] = system: Mycobacterium tuberculosis; experiment: Antimycobacterial activity against extensively drug-resistant Mycobacterium tuberculosis isolate 2911 obtained from sputum of patient at 1 ug/ml by Bactec MGIT960 modified proportion method; type: functional, organism-based
[8] = system: Mycobacterium tuberculosis; experiment: Antimycobacterial activity against extensively drug-resistant Mycobacterium tuberculosis isolate 2474 obtained from sputum of patient at 1 ug/ml by Bactec MGIT960 modified proportion method; type: functional, organism-based
[9] = system: Mycobacterium tuberculosis; experiment: Antimycobacterial activity against extensively drug-resistant Mycobacterium tuberculosis isolate 625 horboring rpoB S531L/G566R/I569L, katG S315T/R463L, gyrA A90V/S95T, rrs A1401G by CLSI method; type: functional
[10] = system: Mycobacterium tuberculosis; experiment: Antimycobacterial activity against extensively drug-resistant Mycobacterium tuberculosis isolate 761 horboring rpoB S531L/Q510P, katG S315T/R463L, gyrA D94N/S95T, rrs G1484T by CLSI method; type: functional
[11] = system: Mycobacterium tuberculosis; experiment: Antimycobacterial activity against extensively drug-resistant Mycobacterium tuberculosis isolate 2301 horboring rpoB S531L, katG R463L/E217G, gyrA D94N/S95T, rrs A1401G by CLSI method; type: functional
[12] = system: Mycobacterium tuberculosis; experiment: Antimycobacterial activity against extensively drug-resistant Mycobacterium tuberculosis isolate 2474 horboring rpoB H526Y, katG D329A/R463L, gyrA D94G/S95T, rrs A1401G by CLSI method; type: functional
[13] = system: Mycobacterium tuberculosis; experiment: Antimycobacterial activity against extensively drug-resistant Mycobacterium tuberculosis isolate 2911 horboring rpoB D516V, katG S315T/R463L, gyrA D94G/S95T/R128S/Y129C, rrs A1401G by CLSI method; type: functional
[14] = system: Mycobacterium tuberculosis; experiment: Antimycobacterial activity against extensively drug-resistant Mycobacterium tuberculosis H37Rv by CLSI method; type: functional
[15] = system: Mycobacterium tuberculosis; experiment: Antimycobacterial activity against extensively drug-resistant Mycobacterium tuberculosis isolate 761 obtained from pus of patient at 1 ug/ml by Bactec MGIT960 modified proportion method; type: functional, organism-based
[16] = system: Mycobacterium tuberculosis; experiment: Antimycobacterial activity against extensively drug-resistant Mycobacterium tuberculosis isolate 2403 obtained from sputum of patient at 1 ug/ml by Bactec MGIT960 modified proportion method; type: functional, organism-based
[17] = system: Mycobacterium tuberculosis; experiment: Antimycobacterial activity against extensively drug-resistant Mycobacterium tuberculosis isolate 2403 obtained from sputum of patient at 5 ug/ml by Bactec MGIT960 modified proportion method; type: functional, organism-based
[18] = system: Mycobacterium tuberculosis; experiment: Antimycobacterial activity against extensively drug-resistant Mycobacterium tuberculosis isolate 2301 obtained from sputum of patient at 5 ug/ml by Bactec MGIT960 modified proportion method; type: functional, organism-based
[19] = system: Mycobacterium tuberculosis; experiment: Antimycobacterial activity against extensively drug-resistant Mycobacterium tuberculosis isolate 2911 obtained from sputum of patient at 5 ug/ml by Bactec MGIT960 modified proportion method; type: functional, organism-based
[20] = system: Mycobacterium tuberculosis; experiment: Antimycobacterial activity against extensively drug-resistant Mycobacterium tuberculosis isolate 2474 obtained from sputum of patient at 5 ug/ml by Bactec MGIT960 modified proportion method; type: functional, organism-based
[21] = system: Mycobacterium tuberculosis; experiment: Antimycobacterial activity against extensively drug-resistant Mycobacterium tuberculosis isolate 761 obtained from pus of patient at 5 ug/ml by Bactec MGIT960 modified proportion method; type: functional, organism-based
[22] = system: Mycobacterium tuberculosis; experiment: Antimycobacterial activity against extensively drug-resistant Mycobacterium tuberculosis isolate 2403 obtained from sputum of patient at 0.1 ug/ml by Bactec MGIT960 modified proportion method; type: functional, organism-based
[23] = system: Mycobacterium tuberculosis; experiment: Antimycobacterial activity against extensively drug-resistant Mycobacterium tuberculosis isolate 2301 obtained from sputum of patient at 0.1 ug/ml by Bactec MGIT960 modified proportion method; type: functional, organism-based
[24] = system: Mycobacterium tuberculosis; experiment: Antimycobacterial activity against extensively drug-resistant Mycobacterium tuberculosis isolate 2911 obtained from sputum of patient at 0.1 ug/ml by Bactec MGIT960 modified proportion method; type: functional, organism-based
[25] = system: Mycobacterium tuberculosis; experiment: Antimycobacterial activity against extensively drug-resistant Mycobacterium tuberculosis isolate 2474 obtained from sputum of patient at 0.1 ug/ml by Bactec MGIT960 modified proportion method; type: functional, organism-based
[26] = system: Mycobacterium tuberculosis; experiment: Antimycobacterial activity against extensively drug-resistant Mycobacterium tuberculosis isolate 625 obtained from sputum of patient at 0.1 ug/ml by Bactec MGIT960 modified proportion method; type: functional, organism-based
[27] = system: Mycobacterium tuberculosis; experiment: Antimycobacterial activity against extensively drug-resistant Mycobacterium tuberculosis isolate 761 obtained from pus of patient at 0.1 ug/ml by Bactec MGIT960 modified proportion method; type: functional, organism-based
[28] = system: Mycobacterium tuberculosis; experiment: Antimycobacterial activity against extensively drug-resistant Mycobacterium tuberculosis isolate 2403 obtained from sputum of patient at 4 ug/ml by Bactec MGIT960 modified proportion method; type: functional, organism-based
[29] = system: Mycobacterium tuberculosis; experiment: Antimycobacterial activity against extensively drug-resistant Mycobacterium tuberculosis isolate 2301 obtained from sputum of patient at 4 ug/ml by Bactec MGIT960 modified proportion method; type: functional, organism-based
[30] = system: Mycobacterium tuberculosis; experiment: Antimycobacterial activity against extensively drug-resistant Mycobacterium tuberculosis isolate 2911 obtained from sputum of patient at 4 ug/ml by Bactec MGIT960 modified proportion method; type: functional, organism-based
[31] = system: Mycobacterium tuberculosis; experiment: Antimycobacterial activity against extensively drug-resistant Mycobacterium tuberculosis isolate 2474 obtained from sputum of patient at 4 ug/ml by Bactec MGIT960 modified proportion method; type: functional, organism-based
[32] = system: Mycobacterium tuberculosis; experiment: Antimycobacterial activity against extensively drug-resistant Mycobacterium tuberculosis isolate 625 obtained from sputum of patient at 4 ug/ml by Bactec MGIT960 modified proportion method; type: functional, organism-based
[33] = system: Mycobacterium tuberculosis; experiment: Antimycobacterial activity against extensively drug-resistant Mycobacterium tuberculosis isolate 761 obtained from pus of patient at 4 ug/ml by Bactec MGIT960 modified proportion method; type: functional, organism-based
[34] = system: Mycobacterium tuberculosis; experiment: Antimycobacterial activity against extensively drug-resistant Mycobacterium tuberculosis isolate 2474 obtained from sputum of patient at 2 ug/ml by Bactec MGIT960 modified proportion method; type: functional, organism-based
[35] = system: Mycobacterium tuberculosis; experiment: Antimycobacterial activity against extensively drug-resistant Mycobacterium tuberculosis isolate 625 obtained from sputum of patient at 1 ug/ml by Bactec MGIT960 modified proportion method; type: functional, organism-based

| SMILES | MIC [9] [µg/mL] | MIC [10] [µg/mL] | MIC [11] [µg/mL] | MIC [12] [µg/mL] | MIC [13] [µg/mL] | MIC [14] [µg/mL] | further results |
| --- | --- | --- | --- | --- | --- | --- | --- |
| COc1c(N2C[C@@H]3CCCN[C@@H]3C2)c(F)cc2c(=O)c(C(=O)O)cn(C3CC3)c12 | – | – | – | – | – | – | Activity [1]: inactive; Activity [2]: inactive; Activity [3]: inactive; Activity [4]: inactive; Activity [5]: inactive |
| C[C@H]1COc2c(N3CCN(C)CC3)c(F)cc3c(=O)c(C(=O)O)cn1c23 | – | – | – | – | – | – | Activity [1]: inactive; Activity [2]: inactive; Activity [3]: inactive; Activity [5]: inactive |
| NCC[C@H](O)C(=O)N[C@@H]1C[C@H](N)[C@@H](O[C@H]2O[C@H](CN)[C@@H](O)[C@H](O)[C@H]2O)[C@H](O)[C@H]1O[C@H]1O[C@H](CO)[C@@H](O)[C@H](N)[C@H]1O [AMIKACIN] | >16 | 16 (≈ 27.3 µM) | >16 | >16 | >16 | 0.5 (≈ 0.854 µM) | Activity [6]: inactive; Activity [7]: inactive; Activity [8]: inactive; Activity [15]: inactive; Activity [16]: inactive |
| N[C@@H]1CONC1=O [CYCLOSERINE] | 16 (≈ 157 µM) | >16 | 16 (≈ 157 µM) | 16 (≈ 157 µM) | 16 (≈ 157 µM) | 8 (≈ 78.4 µM) | – |
| CC[C@@H](CO)NCCN[C@@H](CC)CO [ETHAMBUTOL] | 4 (≈ 19.6 µM) | 8 (≈ 39.2 µM) | 2 (≈ 9.79 µM) | 4 (≈ 19.6 µM) | 4 (≈ 19.6 µM) | 1 (≈ 4.89 µM) | Activity [17]: inactive; Activity [18]: inactive; Activity [19]: inactive; Activity [20]: inactive; Activity [21]: Active |
| CCc1cc(C(N)=S)ccn1 [ETHIONAMIDE] | 4 (≈ 24.1 µM) | 1 (≈ 6.02 µM) | 2 (≈ 12 µM) | >16 | 4 (≈ 24.1 µM) | 0.5 (≈ 3.01 µM) | – |
| NNC(=O)c1ccncc1 [ISONIAZID] | >16 | 4 (≈ 29.2 µM) | 0.5 (≈ 3.65 µM) | 1 (≈ 7.29 µM) | 4 (≈ 29.2 µM) | 0.25 (≈ 1.82 µM) | Activity [22]: inactive; Activity [23]: inactive; Activity [24]: inactive; Activity [25]: inactive; Activity [26]: inactive; Activity [27]: inactive |
| NC[C@H]1O[C@H](O[C@H]2[C@H](O)[C@@H](O[C@H]3O[C@H](CO)[C@@H](O)[C@H](N)[C@H]3O)[C@H](N)C[C@@H]2N)[C@H](O)[C@@H](O)[C@@H]1O [KANAMYCIN] | >16 | >16 | >16 | >16 | >16 | 2 (≈ 4.13 µM) | Activity [28]: inactive; Activity [29]: inactive; Activity [30]: inactive; Activity [31]: Active; Activity [32]: inactive; Activity [33]: inactive |
| CC1COc2c(N3CCN(C)CC3)c(F)cc3c(=O)c(C(=O)O)cn1c23 (stereo not drawn) [OFLOXACIN] | 16 (≈ 44.3 µM) | 16 (≈ 44.3 µM) | 8 (≈ 22.1 µM) | 8 (≈ 22.1 µM) | 8 (≈ 22.1 µM) | 0.5 (≈ 1.38 µM) | Activity [1]: inactive; Activity [2]: inactive; Activity [3]: inactive; Activity [34]: inactive; Activity [4]: inactive; Activity [5]: inactive |
| CO[C@H]1/C=C/O[C@@]2(C)Oc3c(C)c(O)c4c(O)c(c(/C=N/N5CCN(C)CC5)c(O)c4c3C2=O)NC(=O)/C(C)=C\C=C\[C@H](C)[C@H](O)[C@@H](C)[C@@H](O)[C@@H](C)[C@H](OC(C)=O)[C@@H]1C [RIFAMPIN] | >16 | >16 | >16 | >16 | 16 (≈ 19.4 µM) | 0.25 (≈ 0.304 µM) | Activity [6]: inactive; Activity [7]: inactive; Activity [8]: inactive; Activity [35]: inactive; Activity [15]: inactive; Activity [16]: inactive |
| C[C@@H]1CN(c2c(F)c(N)c3c(=O)c(C(=O)O)cn(C4CC4)c3c2F)C[C@H](C)N1 [SPARFLOXACIN] | 8 (≈ 20.4 µM) | 16 (≈ 40.8 µM) | 16 (≈ 40.8 µM) | 16 (≈ 40.8 µM) | >16 | 0.5 (≈ 1.27 µM) | – |
| CN[C@@H]1[C@H](O[C@H]2[C@H](O[C@H]3[C@H](O)[C@@H](O)[C@H](N=C(N)N)[C@@H](O)[C@@H]3N=C(N)N)O[C@@H](C)[C@]2(O)C=O)O[C@@H](CO)[C@H](O)[C@H]1O [STREPTOMYCIN] | 16 (≈ 27.5 µM) | 0.125 (≈ 0.215 µM) | 0.5 (≈ 0.86 µM) | >16 | >16 | 1 (≈ 1.72 µM) | Activity [6]: inactive; Activity [7]: inactive; Activity [8]: inactive; Activity [15]: Active; Activity [16]: inactive |
